Each structure is given as a SMILES string. Counter-ions that a name gives are not always drawn. Like-named read-outs stand apart in the source and are kept apart here.

Data set [1] is described as follows: Stability: residual ratio (concentration after storage/initial concentration) by HPLC after standing at room temperature for 10 days. Type of data set: physicochemical. The settings on record: water. Here is the method:
Then, their residual ratios (concentration after storage/initial concentration) were determined by HPLC through a column Shodex Asahipak NH2P-50 4E (trade name, manufactured by Showa Denko KK) to evaluate stability.

For data set [2], the system named is normal human adult mamma epidermal Keratinocyte. Type of data set: cell-based. The following applies: 20 hours culture. How it is done: About 6×10^5 cells of a normal human adult mamma epidermal Keratinocyte (available from Kurashiki Boseki KK) were sowed on a 60 mm plate and cultured in a serum-free culturing medium (manufactured by Kurashiki Boseki KK) for 2 hours, and after displacing with the same culturing medium having added thereto from 2 to 50 μM of an ascorbic acid or a derivative thereof, further cultured for 20 hours. The cells were collected by trypsin treatment, and the number of cells was counted by a Coulter Counter Model DN (trade name, manufactured by Coulter Electronics). The cells thus collected were washed with Hank's equilibrium salt solution, pulverized in an ultrasonic homogenizer, filtered through a Mol-cut II (UFPlLCC) (trade name, produced by Nippon Milipore KK) and analyzed by HPLC through a column Shodex Asahipak NH2P-50 4E (trade name, produced by Showa Denko KK). The amount of ascorbic acid and derivatives thereof was measured to determine the intracellular cumulative amount. As a control, culturing was performed in the same manner as above except for not adding ascorbic acid or a derivative thereof, and the ascorbic acid was quantitatively determined. The difference in the intracellular ascorbic acid cumulative amount between the case where ascorbic acid or a derivative thereof was added and the case where ascorbic acid or a derivative thereof was not added is shown in Table 2. […]

Take `O=C1O[C@H]([C@@H](O)CO)C(O)=C1OP(=O)([O-])[O-].[Mg+2]` [L-Ascorbic acid-2-phosphate magnesium salt]: the remaining at 240 h, 2000 µM in data set [1] (2 mM aqueous solution, room temperature, 10 days, HPLC, read-out: Stability (residual ratio: concentration after storage/initial concentration)) turned out to be 97%. Further, the entries for the “Intracellular Cumulative Amount (difference from not added)” value in data set [2] (addition amount 2 μM) and in data set [2] (addition amount 50 μM) were under 0.0002 Pmole/cell and 0.0022 Pmole/cell, respectively.

For `CCCCCCCCCCCCCCCC(=O)OC[C@H](O)[C@H]1OC(=O)C(OP(=O)(O)O)=C1O` [L-Ascorbic acid-2-phosphate-6-palmitate magnesium salt], the remaining at 240 h, 2000 µM in data set [1] is 98%.
